Laboratory results from patent US20250108110A1, “COMBINATION THERAPY FOR USE IN TREATMENT OF NON-SMALL CELL LUNG CANCER” (Alethia Biotherapeutics Inc., priority 2022, published 2025).

Columns and labels:
[1] = tested on: advanced non-small cell lung cancer; conditions: second-line chemotherapy; cited from earlier work
[2] = Pharmacokinetics of AB-16B5 in treated subjects; assay type: in vivo, human; conditions: preliminary pharmacokinetics data (not shown), 12 mg/kg once weekly
Source text: Yet another secondary objective of this study is to determine the pharmacokinetics of AB-16B5 in this subject population.

| Compound | efficacy of 50 mg/m^2 once every two weeks versus 75 mg/m^2 once every three weeks [1] | accumulation of the antibody in the treated subjects over time [2] |
| --- | --- | --- |
| CC(=O)O[C@@]12CO[C@@H]1C[C@H](O)[C@@]1(C)C(=O)[C@H](O)C3=C(C)[C@@H](OC(=O)[C@H](O)[C@@H](NC(=O)OC(C)(C)C)c4ccccc4)C[C@@](O)([C@@H](OC(=O)c4ccccc4)[C@H]21)C3(C)C [docetaxel] | as effective as | – |
| AB-16B5: humanized IgG2 monoclonal antibody targeting sCLU for the inhibition of cancer-associated EMT; light chain SEQ ID NO:14, heavy chain SEQ ID NO:15 | – | accumulation |
